Results as given in paper PMC8200971, “Design, Synthesis, Biological Evaluation and Silico Prediction of Novel Sinomenine Derivatives” (Molecules, 2021).

Experiments:
[1] = test system: Hek293 (human embryonic kidney cell lines); assay: CCK8 cytotoxicity assay, normal cells; assay type: cell-based; conditions: Homo sapiens, HEK293, 60 h; for IC50: read-out: IC50 Hek293; for inhibition at 2.5 µM / inhibition at 25 µM: read-out: growth inhibition ratio (mean ± SD)
Method: (§1) Cytotoxicity screens were performed to assess the in vitro anticancer activity of the synthesized sinomenine derivatives 6a–6l on the various cancer cell lines MCF-7, Hela, SW480, and A549, as well as on Hek293 as a normal cell line, at doses of 2.5 and 25 μM. The obtained inhibition ratios data were used to construct a heat map (Figure 3, Tables S1 and S2) in order to select compounds that exert cancer cell line-specific cytotoxicity. Then, the IC50 values of the promising compound were determined. Cisplatin was used as a reference standard. The antiproliferative activity was based on the evaluation of the percent viability using the CCK8 assay, which is a rapid and sensitive method for determining the number of viable cells in culture. In the presence of electronic coupling reagents, WST-8 can be reduced by a dehydrogenase in the mitochondria to produce a highly water-soluble orange-yellow formazan product. Its color is proportional to the proliferation of the number of viable cells and is related to cytotoxicity. Using a microplate reader to measure the OD value can indirectly reflect the number of living cells at 450 nm wavelength.
(§2) To understand structure–function relationships, these selected compounds were subjected to subsequent analyses. All six compounds (6a and 6c–6g) were further examined to determine their IC50 concentrations on the previously mentioned cell lines, and their efficacy was compared to the reference drug cisplatin. For this, six compounds and cisplatin were evaluated on Hela, MCF-7, SW480, and A549, and on noncancerous Hek293 cell lines at various concentrations for 60 h. IC50 values were calculated (Table 2).
(§3) The MCF-7 (human breast cancer cell lines), Hela (human cervical cancer cell lines), SW480 (human colon adenocarcinoma cell lines), A549 (human lung adenocarcinoma cell lines) and nontoxic normal cells Hek293 (human embryonic kidney cell lines) cells were used to measure the cytotoxicity of the 6a–6l. They were obtained from the Beijing Normal University (Beijing, China). The test cell lines were cultured in DMEM, IMDM, F12 and DMEM nutrient medium containing 10% heat-inactivated fetal bovine serum, […] and 100 units/mL penicillin in a humified, 5% (v/v) CO2 atmosphere at 37 °C.
(§4) Cell viability was estimated using the CCK8 assay. Tumor cells ([…]) viz. MCF-7, Hela, SW480, A549 and nontoxic normal cells Hek293 were seeded in medium containing Corning® 96-well tissue culture plates at confluences of […], respectively, in Incucyte ZOOM. Fresh medium (100 μL) containing different concentrations of the test sample was added after 12 h of seeding. The microtiter plates were incubated at 37 °C in a humidified incubator with 5% CO2 for 60 h. Triplicates from each concentration were used. Negative control cells were incubated without sample and cisplatin as a positive control. At the end of treatment, the numbers of viable cells were determined by the CCK8 test. In brief, the media was removed from the 96 well plates and replaced with 100 μL of fresh culture medium with 10% CCK8 solution added to each well including the untreated controls. The 96 well plates were then incubated at 37 °C and 5% CO2 for 1–4 h. Then, the absorbance was measured at 450 nm using a BMG LABTECH®-POLAR star Omega microplate reader (Ortenberg, Germany) to determine the number of viable cells, and the percentage of viability was calculated as ((ODt- ODb/ODc- ODb)) × 100%, where ODt is the mean optical density of wells treated with the tested sample, ODc is the mean optical density of wells treated with DMSO and ODb is the mean optical density of PBS wells without cells. The relation between surviving cells and drug concentrations were plotted to get the survival curve of each tumor cell line after treatment with the specified compound. […]

[2] = test system: A549 (human lung adenocarcinoma cell lines); assay: CCK8 cytotoxicity assay; assay type: cell-based; conditions: Homo sapiens, A549, 60 h; for IC50: read-out: IC50 A549; for inhibition at 2.5 µM / inhibition at 25 µM: read-out: growth inhibition ratio (mean ± SD)
Method: as §1, §2, §3, §4

[3] = test system: SW480 (human colon adenocarcinoma cell lines); assay: CCK8 cytotoxicity assay; assay type: cell-based; conditions: Homo sapiens, SW480, 60 h; for IC50: read-out: IC50 SW480; for inhibition at 2.5 µM / inhibition at 25 µM: read-out: growth inhibition ratio (mean ± SD)
Method: as §1, §2, §3, §4

[4] = test system: Hela (human cervical cancer cell lines); assay: CCK8 cytotoxicity assay; assay type: cell-based; conditions: Homo sapiens, HeLa, 60 h; for IC50: read-out: IC50 Hela; for inhibition at 2.5 µM / inhibition at 25 µM: read-out: growth inhibition ratio (mean ± SD)
Method: as §1, §2, §3, §4

[5] = test system: MCF-7 (human breast cancer cell lines); assay: CCK8 cytotoxicity assay; assay type: cell-based; conditions: Homo sapiens, MCF7, 60 h; for IC50: read-out: IC50 MCF-7; for inhibition at 2.5 µM / inhibition at 25 µM: read-out: growth inhibition ratio (mean ± SD)
Method: as §1, §2, §3, §4

SMILES | melting point | IC50 [1] | inhibition at 2.5 µM [1] | inhibition at 25 µM [1] | IC50 [2] | inhibition at 2.5 µM [2] | inhibition at 25 µM [2] | IC50 [3] | inhibition at 2.5 µM [3] | inhibition at 25 µM [3] | IC50 [4] | inhibition at 2.5 µM [4] | inhibition at 25 µM [4] | IC50 [5] | inhibition at 2.5 µM [5] | inhibition at 25 µM [5]
COC1=C[C@@H]2[C@@H]3Cc4c(CN5CCCC5)cc(OC)c(OC(=O)Cc5ccccc5Cl)c4[C@]2(CCN3C)CC1=O [6c, (4bR,8aS,9S)-3,7-dimethoxy-11-methyl-6-oxo-1-(pyrrolidin-1-ylmethyl)-6,8a,9,10-tetrahydro-5H-9,4b-(epiminoethano)phenanthren-4-yl 2-(2-chlorophenyl)acetate] | 79 to 83 °C | 6.52 ± 0.19 µM | 13.8 ± 2.27% | 54.6 ± 2.29% | 18.7 ± 0.7 µM | 16.3 ± 0.63% | 49.4 ± 0.59% | > 25 µM | 28.3 ± 6.91% | 58.4 ± 7.58% | > 25 µM | 3.05 ± 3.91% | 53.5 ± 2.45% | > 25 µM | 0% | 42 ± 3.02%
COC1=C[C@@H]2[C@@H]3Cc4c(CN5CCCC5)cc(OC)c(OC(=O)Cc5ccccc5)c4[C@]2(CCN3C)CC1=O [6h, (4bR,8aS,9S)-3,7-dimethoxy-11-methyl-6-oxo-1-(pyrrolidin-1-ylmethyl)-6,8a,9,10-tetrahydro-5H-9,4b-(epiminoethano)phenanthren-4-yl 2-phenylacetate] | 165 to 168 °C |  | 17.4 ± 1.49% | 46 ± 22.4% |  | 20.6 ± 0.77% | 52.3 ± 0.76% |  | 28.2 ± 10.3% | 37.8 ± 9.83% |  | 11.2 ± 10% | 21.2 ± 4.4% |  | 5.79 ± 10% | 0%
COC1=C[C@@H]2[C@@H]3Cc4c(CN5CCCC5)cc(OC)c(OC(=O)Cc5ccc(Cl)cc5)c4[C@]2(CCN3C)CC1=O [6a, (4bR,8aS,9S)-3,7-dimethoxy-11-methyl-6-oxo-1-(pyrrolidin-1-ylmethyl)-6,8a,9,10-tetrahydro-5H-9,4b-(epiminoethano)phenanthren-4-yl 2-(4-chlorophenyl)acetate] | 162 to 165 °C | 13 ± 0.62 µM | 17.9 ± 1.86% | 61.1 ± 4.71% | > 25 µM | 3.41 ± 0.82% | 37.4 ± 0.39% | 14.94 ± 0.06 µM | 12.9 ± 6.52% | 82.3 ± 4.36% | 11.5 ± 1.04 µM | 7.81 ± 5.42% | 88.49 ± 0.67% | 14.3 ± 0.83 µM | 0% | 85.3 ± 1.62%
COC1=C[C@@H]2[C@@H]3Cc4c(CN5CCCC5)cc(OC)c(OC(=O)Cc5ccc(OC)c(OC)c5)c4[C@]2(CCN3C)CC1=O [6b, (4bR,8aS,9S)-3,7-dimethoxy-11-methyl-6-oxo-1-(pyrrolidin-1-ylmethyl)-6,8a,9,10-tetrahydro-5H-9,4b-(epiminoethano)phenanthren-4-yl 2-(3,4-dimethoxyphenyl)acetate] | 80 to 83 °C |  | 0.66 ± 1.14% | 45.9 ± 1.35% |  | 0% | 30.9 ± 0.32% |  | 22.9 ± 6.49% | 29.5 ± 11.2% |  | 2.03 ± 2.29% | 11.5 ± 4.88% |  | 3.63 ± 3.16% | 2.7 ± 4.67%
COC1=C[C@@H]2[C@@H]3Cc4c(CN5CCCC5)cc(OC)c(OC(=O)Cc5ccc([N+](=O)[O-])cc5)c4[C@]2(CCN3C)CC1=O [6j, (4bR,8aS,9S)-3,7-dimethoxy-11-methyl-6-oxo-1-(pyrrolidin-1-ylmethyl)-6,8a,9,10-tetrahydro-5H-9,4b-(epiminoethano)phenanthren-4-yl 2-(4-nitrophenyl)acetate] | 82 to 85 °C |  | 20.5 ± 6.76% | 56.1 ± 7.28% |  | 15.4 ± 5.6% | 38.7 ± 8.59% |  | 0% | 0.92 ± 1.34% |  | 0% | 3.75 ± 0.91% |  | 3.64 ± 6.3% | 1.97 ± 2.75%
COC1=C[C@@H]2[C@@H]3Cc4c(CN5CCCC5)cc(OC)c(OC(=O)Cc5ccc(Cl)c(Cl)c5)c4[C@]2(CCN3C)CC1=O [6g, (4bR,8aS,9S)-3,7-dimethoxy-11-methyl-6-oxo-1-(pyrrolidin-1-ylmethyl)-6,8a,9,10-tetrahydro-5H-9,4b-(epiminoethano)phenanthren-4-yl 2-(3,4-dichlorophenyl)acetate] | 160 to 164 °C | 4.71 ± 0.48 µM | 9.72 ± 1.96% | 59.9 ± 16.9% | > 25 µM | 20.3 ± 0.78% | 43.9 ± 1.11% | > 25 µM | 11.8 ± 7.5% | 56 ± 5.88% | 11.9 ± 0.6 µM | 35.3 ± 4.37% | 93.85 ± 0.2% | > 25 µM | 6.59 ± 4.98% | 34.6 ± 2.06%
COC1=C[C@@H]2[C@@H]3Cc4c(CN5CCCC5)cc(OC)c(OC(=O)Cc5ccc(Cl)cc5Cl)c4[C@]2(CCN3C)CC1=O [6d, (4bR,8aS,9S)-3,7-dimethoxy-11-methyl-6-oxo-1-(pyrrolidin-1-ylmethyl)-6,8a,9,10-tetrahydro-5H-9,4b-(epiminoethano)phenanthren-4-yl 2-(2,4-dichlorophenyl)acetate] | 82 to 86 °C | 3.46 ± 0.02 µM | 42.6 ± 0.84% | 84.6 ± 4.34% | 11.6 ± 1.61 µM | 29.59 ± 0.16% | 93.02 ± 0.2% | 6.08 ± 0.28 µM | 29.1 ± 6.92% | 94.2 ± 3.21% | 8.2 ± 0.52 µM | 10.3 ± 4.44% | 93.1 ± 0.17% | 5.73 ± 0.36 µM | 0% | 88.6 ± 2.73%
